What was measured:
CCRF-CEM = assay: cells; assay type: cell-based; settings: Homo sapiens, leukemia, 48 h, read-out: Log10 TGI
HL-60(TB) = assay: cells; assay type: cell-based; settings: Homo sapiens, HL-60, 48 h, read-out: Log10 TGI
K-562 = assay: cells; assay type: cell-based; settings: Homo sapiens, K562; K-562, leukemia, 48 h; read-out: Log10 TGI (converted)
RPMI-8226 = assay: NCI 60 cell line panel screening assay (SRB), RPMI-8226; assay type: cell-based; settings: Homo sapiens, RPMI-8226, leukemia, 48 h
SR = assay: cells; assay type: cell-based; settings: Homo sapiens, leukemia, 48 h, read-out: Log10 TGI
HOP-62 = assay: cells; assay type: cell-based; settings: Homo sapiens; HOP-62, non-small cell lung cancer, 48 h; read-out: Log10 TGI (converted)
NCI-H460 = assay: cells; assay type: cell-based; settings: Homo sapiens, NCI-H460, non-small cell lung cancer, 48 h
NCI-H522 = assay: cells; assay type: cell-based; settings: Homo sapiens; NCI-H522, non-small cell lung cancer, 48 h; read-out: Log10 TGI (converted)
HCT-116 = assay: cells; assay type: cell-based; settings: Homo sapiens, HCT-116, 48 h
HCT-15 = assay: cells; assay type: cell-based; settings: Homo sapiens, HCT-15, colon cancer, 48 h
HT29 = assay: cells; assay type: cell-based; settings: Homo sapiens, HT-29; HT29, colon cancer, 48 h; read-out: Log10 GI50 (converted)
KM12 = assay: cells; assay type: cell-based; settings: Homo sapiens; KM12, colon cancer, 48 h; read-out: Log10 TGI
SW-620 = assay: NCI 60 cell line panel screening assay (SRB), SW-620; assay type: cell-based; settings: Homo sapiens; SW-620, colon cancer, 48 h; read-out: Log10 TGI
SNB-19 = assay: cells; assay type: cell-based; settings: Homo sapiens; SNB-19, CNS cancer, 48 h; read-out: Log10 TGI
U251 = assay: cells; assay type: cell-based; settings: Homo sapiens, U-251; U251, CNS cancer, 48 h; read-out: Log10 TGI (converted)
LOX IMVI = assay: cells; assay type: cell-based; settings: Homo sapiens, melanoma, 48 h, read-out: Log10 TGI (converted)
MALME-3M = assay: cells; assay type: cell-based; settings: Homo sapiens, Malme-3M, 48 h, read-out: Log10 TGI
UACC-257 = assay: cells; assay type: cell-based; settings: Homo sapiens, UACC-257, 48 h; read-out: Log10 TGI (converted)
IGROVI = assay: NCI 60 cell line panel screening assay (SRB), IGROVI; assay type: cell-based; settings: 48 h, read-out: Log10 TGI
OVCAR-3 = assay: cells; assay type: cell-based; settings: Homo sapiens; OVCAR-3, ovarian cancer, 48 h; read-out: Log10 TGI (converted)
OVCAR-4 = assay: cells; assay type: cell-based; settings: Homo sapiens, OVCAR-4, 48 h
OVCAR-5 = assay: cells; assay type: cell-based; settings: Homo sapiens; OVCAR-5, ovarian cancer, 48 h; read-out: Log10 TGI (converted)
OVCAR-8 = assay: cells; assay type: cell-based; settings: Homo sapiens; OVCAR-8, ovarian cancer, 48 h; read-out: Log10 GI50 (converted)
786-0 = assay: cells; assay type: cell-based; settings: Homo sapiens; 786-0, renal cancer, 48 h; read-out: Log10 TGI
SN12C = assay: NCI 60 cell line panel screening assay (SRB), SN12C; assay type: cell-based; settings: Homo sapiens, 48 h, read-out: Log10 TGI
PC-3 = assay: cells; assay type: cell-based; settings: Homo sapiens; PC-3, prostate cancer, 48 h; read-out: Log10 TGI
DU-145 = assay: cells; assay type: cell-based; settings: Homo sapiens, DU-145, 48 h; read-out: Log10 TGI
MCF7/ADR-RES = assay: cells; assay type: cell-based; settings: Homo sapiens; MCF7/ADR-RES, breast cancer, 48 h; read-out: Log10 TGI
MDA-MB231/ATCC = assay: cells; assay type: cell-based; settings: Homo sapiens, MDA-MB-231, breast cancer, 48 h, read-out: Log10 TGI (converted)
MDA-MB435 = assay: NCI 60 cell line panel screening assay (SRB), MDA-MB435; assay type: cell-based; settings: Homo sapiens, MDA-MB-435; printed MDA-MBA35, breast cancer, 48 h; read-out: Log10 GI50 (converted)
MDA-N = assay: NCI 60 cell line panel screening assay (SRB), MDA-N; assay type: cell-based; settings: Homo sapiens, breast cancer, 48 h, read-out: Log10 GI50 (converted)
BT-549 = assay: cells; assay type: cell-based; settings: Homo sapiens, BT-549, breast cancer, 48 h
MOLT-4 [1] = settings: MOLT-4, FIG. 6
MOLT-4 [2] = assay: cells; settings: Homo sapiens, MOLT-4, 48 h
NCI-H322M = assay: cells; settings: Homo sapiens, 48 h, read-out: Log10 TGI
60 cell line panel = assay: NCI 60 cell line panel, whole panel; settings: panel
M14 = assay: NCI 60 cell line panel screening assay (SRB), M14; settings: Homo sapiens, M14, 48 h, read-out: Log10 TGI
T-47D = assay: NCI 60 cell line panel screening assay (SRB), T-47D; settings: Homo sapiens, T47D, 48 h, read-out: Log10 GI50 (converted)
[3] = rat liver microsomes; cited from earlier work
PE cells = assay: Viability by trypan blue exclusion; assay type: cell-based, murine (SENCAR mice); settings: 96 hours
[4] = cited from earlier work
[5] = read-out: Log10 GI50 (converted)
[6] = read-out: Log10 TGI (converted)

Q: With CC(=O)O[C@H]1C(=O)[C@@]2(C)[C@H]([C@H](OC(=O)c3ccccc3)[C@]3(O)C[C@H](OC(=O)[C@H](O)[C@@H](NC(=O)c4ccccc4)c4ccccc4)C(C)=C1C3(C)C)[C@]1(OC(C)=O)CO[C@@H]1C[C@@H]2O [Paclitaxel, reference compound] as the molecule, how does the IC (TGI) (CCRF-CEM) read?
A: > 100 µM

Q: What about the IC (TGI) (HL-60(TB)) of the same molecule?
A: > 29.5 µM

Q: And the IC (TGI) (K-562)?
A: > 100 µM

Q: What about the GI50 (RPMI-8226; [5]) of the same molecule?
A: < 0.1 pM

Q: What about the IC (TGI) (RPMI-8226; read-out: Log10 TGI) of the same molecule?
A: > 100 µM

Q: What about the IC (TGI) (SR) of the same molecule?
A: > 100 µM

Q: And the IC (TGI) (HOP-62)?
A: 15.8 µM

Q: And the GI50 (NCI-H460; [5])?
A: < 0.1 pM

Q: And the IC (TGI) (NCI-H460; [6])?
A: 12 µM

Q: And the IC (TGI) (NCI-H522)?
A: 6.31 pM

Q: And the GI50 (HCT-116; [5])?
A: < 0.1 pM

Q: And the IC (TGI) (HCT-116; [6])?
A: 15.1 µM

Q: What about the GI50 (HCT-15; [5]) of the same molecule?
A: 0.427 µM

Q: What about the IC (TGI) (HCT-15; read-out: Log10 TGI) of the same molecule?
A: > 100 µM

Q: And the GI50 (HT29)?
A: < 0.1 pM

Q: What about the IC (TGI) (KM12) of the same molecule?
A: 43.7 µM

Q: And the IC (TGI) (SW-620)?
A: > 100 µM

Q: And the IC (TGI) (SNB-19)?
A: > 100 µM

Q: And the IC (TGI) (U251)?
A: 47.9 µM

Q: What about the IC (TGI) (LOX IMVI) of the same molecule?
A: 22.4 µM

Q: And the IC (TGI) (MALME-3M)?
A: 34.7 µM

Q: What about the IC (TGI) (UACC-257) of the same molecule?
A: 30.2 µM

Q: What about the IC (TGI) (IGROVI) of the same molecule?
A: 64.6 µM

Q: What about the IC (TGI) (OVCAR-3) of the same molecule?
A: 28.2 µM

Q: What about the GI50 (OVCAR-4; [5]) of the same molecule?
A: 10 µM

Q: What about the IC (TGI) (OVCAR-4; read-out: Log10 TGI) of the same molecule?
A: 64.6 µM

Q: What about the IC (TGI) (OVCAR-5) of the same molecule?
A: 12 µM

Q: What about the GI50 (OVCAR-8) of the same molecule?
A: 0.0178 nM

Q: What about the IC (TGI) (786-0) of the same molecule?
A: > 100 µM

Q: What about the IC (TGI) (SN12C) of the same molecule?
A: 51.3 µM

Q: And the IC (TGI) (PC-3)?
A: > 100 µM

Q: What about the IC (TGI) (DU-145) of the same molecule?
A: > 100 µM

Q: And the IC (TGI) (MCF7/ADR-RES)?
A: > 100 µM

Q: And the IC (TGI) (MDA-MB231/ATCC)?
A: 14.5 µM

Q: And the GI50 (MDA-MB435)?
A: < 0.1 pM

Q: What about the GI50 (MDA-N) of the same molecule?
A: < 0.1 pM

Q: And the GI50 (BT-549; [5])?
A: 0.00049 µM

Q: And the IC (TGI) (BT-549; [6])?
A: 0.479 µM

Q: And the “concentration for cytostasis (PG 0)” value (MOLT-4 [1])?
A: greater than 10^-4 M

Q: And the CC50 (MOLT-4 [2]; read-out: Log10 LC50 (converted))?
A: > 100 µM

Q: What about the IC (TGI) (MOLT-4 [2]; read-out: Log10 TGI) of the same molecule?
A: > 100 µM

Q: And the IC (TGI) (NCI-H322M)?
A: 34.7 µM

Q: What about the “Delta of Log10 LC50” value (60 cell line panel) of the same molecule?
A: -4.06

Q: What about the “Delta of Log10 TGI” value (60 cell line panel) of the same molecule?
A: -4.54

Q: And the “Range of Log10 TGI” value (60 cell line panel)?
A: 7.20

Q: What about the IC (TGI) (M14) of the same molecule?
A: 24 µM

Q: What about the GI50 (T-47D) of the same molecule?
A: 0.000155 µM

Q: For CCO[C@H]1O[C@@H]2O[C@@]3(C)CC[C@H]4[C@H](C)CC[C@@H]([C@H]1C)[C@@]24OO3 [arteether], which conversion into dihydroartemisinin [3] is on record?
A: rapidly converted

Q: Which “viability of treated cells” value (PE cells) does the source give for C=C1/C(=C\C=C2/CCC[C@]3(C)[C@@H]([C@H](C)CCCC(C)(C)O)CC[C@@H]23)C[C@@H](O)C[C@@H]1O [calcitriol, 1α, 25-dihydroxyvitamin D3] here?
A: identical to control cells

Q: Which half-life in plasma [4] does the source give for C[C@@H]1CC[C@H]2[C@@H](C)C(O)O[C@@H]3O[C@@]4(C)CC[C@@H]1[C@]32OO4 (some centres unmarked) [dihydroartemisinin] here?
A: less than two

From patent US6160004A, “C-10 carbon-substituted artemisinin-like trioxane compounds having antimalarial, antiproliferative and antitumor activities” (priority 1998, dated 2000)
